Series [1] addresses PsrA (His6-PsrA) (Pseudomonas aeruginosa, UniProt Q9HZJ9). Put plainly: EMSA, inhibition of PsrA binding to promoter DNA. To be noted: 100 ng PpsrA, PrpoS or PexsC DNA; 0.01% Brij-58; inhibition seen from 5 µM. Background: Mobility shift assays separate free from complexed probe on a gel.
Series [2] concerns the molecule itself. Put plainly: crystal structure.

In the case of `CCCCCCCC/C=C\CCCCCCCC(=O)O` [oleate], in series [1], the “complete inhibition of DNA binding” value is 50 µM.

B1: PsrA (PA3006) of Pseudomonas aeruginosa (natural protein)
chain: MAQSETVERILDAAEQLFAEKGFAETSLRLITSKAGVNLAAVNYHFGSKKALIQAVFSRFLGPFCASLEKELDRRQAKPEAQHATLEDLLHLLVSQAMAVKPRSGNDLSIFMRLLGLAFSQSQGHLRKYLEEVYGKVFRRYMLLVNEAAPKLPPIELFWRVHFMLGAAAFSMSGIKALRAMAETDFGVNTSTEQVMHLMVPFFAAGMRAESGIDDPLLAGAQLRPRNKTPAKA
modifications: selenomethionine in place of methionine
As for B1, the binding result in series [2] was “binds”.

The values are drawn from article PMC2759274 (Molecular microbiology, 2009).
